Converted amounts (≈) assume the structure as drawn. Read-outs that look alike come from different tables or passages of the source.
Columns and labels:
[1] = Solubility in 1× PBS; assay type: physicochemical
[2] = system: HeLa MKYP cells; test: Human mitophagy assay (HeLa MKYP, mtKeima FACS, FCCP/oligomycin); assay type: cell-based
Method: Briefly, HeLa MKYP cells were plated at 10,000 cells/well in 96 well plates along with compounds at various concentrations. Following 16 hrs of incubation, cells were treated with 1 uM FCCP/oligomycin for 6 hours, then analyzed via FACS for the presence of mitochondria in lysosomes (as determined by an emissions spectrum shift from the pH-sensitive mtKeima tag). Examples are shown in FIG. 1 through FIG. 13 below.

[3] = system: HeLa MKYP cells; test: Toxicity / cell death measured by DAPI staining (take-up); assay type: cell-based; details: for Max cell death at 25 uM compound, 1 uM FO / Cell death at 25 μM (no FO): Table 3 Supplement B
Method: H2O2 treatment was performed as a control for cell death as measured by DAPI staining.
Briefly, HeLa MKYP cells were plated at 10,000 cells/well in 96 well plates along with compounds at various concentrations. Following 16 hrs of incubation, cells were treated with 1 uM FCCP/oligomycin for 6 hours, then analyzed via FACS for the presence of mitochondria in lysosomes (as determined by an emissions spectrum shift from the pH-sensitive mtKeima tag).

[4] = Visual inspection of crystallization; assay type: physicochemical; set-up: key: 1: yes crystals; 0: no crystals; details: Tables 5A-5D
Method: (§1) Briefly, the Hela MKYP (Mito-Keima/YFP-Parkin) cells were seeded at 10K cells/well. EP/MTK compounds were added at seeding (cells were still in suspension). The cells were incubated with the EP/MTK compounds for 16 hours, then 1 μM FCCP/oligomycin was added for 6 hours. Prior to harvesting, cells were scored by eye under 20× magnification for the presence or absence of crystalline or aggregated compound, or round cells.

[5] = system: Hela MKYP (Mito-Keima/YFP-Parkin) cells; test: Inspection of round cells; details: Tables 6A-6D
Method: as §1

[6] = Homo sapiens, HeLa, Table 3, read-out: Potency at 1 μM F/O toxin* (EC50 of mitophagy activation)
[7] = Homo sapiens, HeLa, Table 3 Supplement B, read-out: Mitophagy EC50 (HeLa mKeima assay)
[8] = Homo sapiens, HeLa, Table 3 Supplement A, as measured in Table 3, read-out: Potency (EC50 Max Mitophagy) (μM)*

Structure (SMILES): Oc1ccc2c(c1)CCC[C@H]2Nc1ncnc2[nH]c(C(F)(F)F)cc12 [Compound 110]
- solubility [1]: 102 µM (≈ 35.5 µg/mL)
- EC50 [2, 6]: 4.4 µM
- EC50 [2, 7]: 4.38 µM
- Toxicity (% positive for DAPI takeup @ 50 μM) ([3]; Table 3): 11.0%
- Max cell death at 25 uM compound, 1 uM FO [3]: 11%
- Cell death at 25 μM (no FO) [3]: 3.32%

Structure (SMILES): OC[C@H]1CCc2ccccc2[C@@H]1Nc1ncnc2[nH]c(C(F)(F)F)cc12 [Compound 95]
- solubility [1]: 9.07 µM (≈ 3.29 µg/mL)
- EC50 [2, 6]: 5.5 µM
- EC50 [2, 7]: 5.55 µM
- Toxicity (% positive for DAPI takeup @ 50 μM) ([3]; Table 3): 30.9%
- Max cell death at 25 uM compound, 1 uM FO [3]: 30.87%
- Cell death at 25 μM (no FO) [3]: 9.83%

Structure (SMILES): CO[C@@H]1COc2ccccc2[C@@H]1Nc1ncnc2[nH]c(C(F)(F)F)cc12 [Compound 96]
- solubility [1]: 23.8 µM (≈ 8.67 µg/mL)
- EC50 [2, 6]: 1.6 µM
- EC50 [2, 7]: 1.63 µM
- Toxicity (% positive for DAPI takeup @ 50 μM) ([3]; Table 3): 12.1%
- Max cell death at 25 uM compound, 1 uM FO [3]: 12.11%
- Cell death at 25 μM (no FO) [3]: 3.4%

Structure (SMILES): COc1ccc2c(c1)[C@@H](Nc1ncnc3[nH]c(C(F)(F)F)cc13)CCC2 [Compound 86]
- solubility [1]: 1.2 µM (≈ 0.435 µg/mL)
- EC50 ([2]; Table 3, read-out: Potency at 1 μM F/O toxin* (EC50 of mitophagy activation)): 4 µM
- EC50 ([2]; Table 3 Supplement B, listed as EP-0037130, read-out: Mitophagy EC50 (HeLa mKeima assay)): 3.99 µM
- Toxicity (% positive for DAPI takeup @ 50 μM) ([3]; Table 3): 3.2%
- Max cell death at 25 uM compound, 1 uM FO ([3]; listed as EP-0037130): 3.18%
- Cell death at 25 μM (no FO) ([3]; listed as EP-0037130): 1.18%

Structure (SMILES): CO[C@@H]1CCc2ccccc2[C@H]1Nc1ncnc2[nH]c(C(F)(F)F)cc12 [Compound 105]
- solubility [1]: 1 µM (≈ 0.362 µg/mL)
- EC50 [2, 7]: 22.1 µM
- Toxicity (% positive for DAPI takeup @ 50 μM) ([3]; Table 3): 18.4%
- Max cell death at 25 uM compound, 1 uM FO [3]: 18.4%
- Cell death at 25 μM (no FO) [3]: 15.3%

Structure (SMILES): CC(=O)N1CCC(Nc2ncnc3[nH]c(C(F)(F)F)cc23)c2ccccc21 (stereo not drawn) [Compound 93]
- solubility [1]: 1.32 µM (≈ 0.495 µg/mL)
- EC50 [2, 7]: 17.3 µM
- Toxicity (% positive for DAPI takeup @ 50 μM) ([3]; Table 3): 6.9%
- Max cell death at 25 uM compound, 1 uM FO [3]: 6.92%
- Cell death at 25 μM (no FO) [3]: 2.69%

Structure (SMILES): OC1CCc2ccccc2C1Nc1ncnc2[nH]c(C(F)(F)F)cc12 (stereo not drawn) [Compound 91]
- solubility [1]: 1 µM (≈ 0.348 µg/mL)
- EC50 [2, 6]: > 50 µM
- Mitophagy EC50 (HeLa mKeima assay) ([2]; Table 3 Supplement B): Minimal activity
- Toxicity (% positive for DAPI takeup @ 50 μM) ([3]; Table 3): 12.8%
- Max cell death at 25 uM compound, 1 uM FO [3]: 12.8%
- Cell death at 25 μM (no FO) [3]: 3.79%

Structure (SMILES): CO[C@H]1COc2ccccc2[C@H]1Nc1ncnc2[nH]c(C(F)(F)F)cc12 [Compound 99]
- solubility [1]: 20.9 µM (≈ 7.61 µg/mL)
- EC50 [2, 6]: 13.3 µM
- EC50 [2, 7]: 13.3 µM
- Toxicity (% positive for DAPI takeup @ 50 μM) ([3]; Table 3): 3.6%
- Max cell death at 25 uM compound, 1 uM FO [3]: 3.555%
- Cell death at 25 μM (no FO) [3]: 2.49%

Structure (SMILES): C[C@@H](Nc1ncnc2[nH]c(C(F)(F)F)cc12)c1ccccc1 [Compound 38]
- Visual inspection of crystallization ([4]; 1.6 μM): 0
- Visual inspection of crystallization ([4]; 3.1 μM): 0
- Visual inspection of crystallization ([4]; 6.3 μM): 0
- Visual inspection of crystallization ([4]; 12.5 μM): 0
- Visual inspection of crystallization ([4]; 25.0 μM): 0
- Visual inspection of crystallization ([4]; 50.0 μM): 0
- Inspection of round cells ([5]; 1.6 μM): 0
- Inspection of round cells ([5]; 3.1 μM): 0
- Inspection of round cells ([5]; 6.3 μM): 0
- Inspection of round cells ([5]; 12.5 μM): 0
- Inspection of round cells ([5]; 25.0 μM): 0
- Inspection of round cells ([5]; 50.0 μM): 1
- EC50 [2, 6]: 3.1 µM
- EC50 [2, 8]: 3.62 µM
- Toxicity (% positive for DAPI takeup @ 50 μM) ([3]; Table 3): 63.7%
- Toxicity (% positive for DAPI take-up at 50 μM)* ([3]; Table 3 Supplement A): 52.58%

Structure (SMILES): C[C@H](Nc1ncnc2[nH]c(C(F)(F)F)cc12)c1cncnc1 [Compound 44]
- Visual inspection of crystallization ([4]; 1.6 μM): 0
- Visual inspection of crystallization ([4]; 3.1 μM): 0
- Visual inspection of crystallization ([4]; 6.3 μM): 0
- Visual inspection of crystallization ([4]; 12.5 μM): 0
- Visual inspection of crystallization ([4]; 25.0 μM): 0
- Visual inspection of crystallization ([4]; 50.0 μM): 0
- Inspection of round cells ([5]; 1.6 μM): 0
- Inspection of round cells ([5]; 3.1 μM): 0
- Inspection of round cells ([5]; 6.3 μM): 0
- Inspection of round cells ([5]; 12.5 μM): 0
- Inspection of round cells ([5]; 25.0 μM): 0
- Inspection of round cells ([5]; 50.0 μM): 0
- EC50 [2, 6]: 3.1 µM
- EC50 [2, 8]: 3.15 µM
- Toxicity (% positive for DAPI take-up at 50 μM)* ([3]; human): 23.68%
- Toxicity (% positive for DAPI takeup @ 50 μM) ([3]; human): 23.7%

Structure (SMILES): CCC(Nc1ncnc2[nH]c(C(F)(F)F)cc12)c1cncnc1 (stereo not drawn) [Compound 43]
- Visual inspection of crystallization ([4]; 1.6 μM): 0
- Visual inspection of crystallization ([4]; 3.1 μM): 0
- Visual inspection of crystallization ([4]; 6.3 μM): 0
- Visual inspection of crystallization ([4]; 12.5 μM): 0
- Visual inspection of crystallization ([4]; 25.0 μM): 0
- Visual inspection of crystallization ([4]; 50.0 μM): 0
- Inspection of round cells ([5]; 1.6 μM): 0
- Inspection of round cells ([5]; 3.1 μM): 0
- Inspection of round cells ([5]; 6.3 μM): 0
- Inspection of round cells ([5]; 12.5 μM): 0
- Inspection of round cells ([5]; 25.0 μM): 0
- Inspection of round cells ([5]; 50.0 μM): 0
- EC50 [2, 6]: 18.8 µM
- EC50 [2, 8]: 18.8 µM
- Toxicity (% positive for DAPI takeup @ 50 μM) ([3]; Table 3): 15.9%
- Toxicity (% positive for DAPI take-up at 50 μM)* ([3]; Table 3 Supplement A): 15.86%

Structure (SMILES): C[C@H](Nc1ncnc2[nH]cnc12)c1ccccc1 [Compound 27]
- Visual inspection of crystallization ([4]; 1.6 μM): 0
- Visual inspection of crystallization ([4]; 3.1 μM): 0
- Visual inspection of crystallization ([4]; 6.3 μM): 0
- Visual inspection of crystallization ([4]; 12.5 μM): 0
- Visual inspection of crystallization ([4]; 25.0 μM): 0
- Visual inspection of crystallization ([4]; 50.0 μM): 0
- Inspection of round cells ([5]; 1.6 μM): 0
- Inspection of round cells ([5]; 3.1 μM): 0
- Inspection of round cells ([5]; 6.3 μM): 0
- Inspection of round cells ([5]; 12.5 μM): 0
- Inspection of round cells ([5]; 25.0 μM): 0
- Inspection of round cells ([5]; 50.0 μM): 0
- EC50 [2, 6]: 2 µM
- EC50 [2, 8]: 2.09 µM
- Toxicity (% positive for DAPI takeup @ 50 μM) ([3]; Table 3): 11.7%
- Toxicity (% positive for DAPI take-up at 50 μM)* ([3]; Table 3 Supplement A): 13.52%

Structure (SMILES): C[C@@H](Nc1ncnc2[nH]cnc12)c1ccccc1 [Compound 52]
- Visual inspection of crystallization ([4]; 1.6 μM): 0
- Visual inspection of crystallization ([4]; 3.1 μM): 0
- Visual inspection of crystallization ([4]; 6.3 μM): 0
- Visual inspection of crystallization ([4]; 12.5 μM): 0
- Visual inspection of crystallization ([4]; 25.0 μM): 0
- Visual inspection of crystallization ([4]; 50.0 μM): 0
- Inspection of round cells ([5]; 1.6 μM): 0
- Inspection of round cells ([5]; 3.1 μM): 0
- Inspection of round cells ([5]; 6.3 μM): 0
- Inspection of round cells ([5]; 12.5 μM): 0
- Inspection of round cells ([5]; 25.0 μM): 0
- Inspection of round cells ([5]; 50.0 μM): 0
- EC50 [2, 6]: > 50 µM
- EC50 [2, 8]: > 25 µM
- Toxicity (% positive for DAPI takeup @ 50 μM) ([3]; Table 3): 10.1%
- Toxicity (% positive for DAPI take-up at 50 μM)* ([3]; Table 3 Supplement A, listed as EP-0036297): 10.14%

From patent US20220162215A1, “COMPOSITIONS AND METHODS OF USING THE SAME FOR TREATMENT OF NEURODEGENERATIVE AND MITOCHONDRIAL DISEASE” (MITOKININ, INC., priority 2019, published 2022)
